Molecular target: T1, hSCN3A sodium channels (Homo sapiens, UniProt Q9NY46)
T1 construct: expressed in transfected cells
Assay: hSCN3A electrophysiology, whole-cell patch-clamp or PatchXpress 7000, estimated IC-50 (Table B)
Assay type: cell-based
Settings: estimated IC-50; hSCN3A cells, whole-cell patch-clamp or PatchXpress 7000; read-out: SCN3A EIC-50
Experimental: Human Embryonic Kidney (HEK) cells were transfected with an hSCN3A construct using lipofectamine reagent (Invitrogen), using standard techniques. […] Clones were screened for expression using the whole-cell voltage-clamp technique.
HEK cells stably transfected with hSCN3A were maintained in DMEM medium supplemented with 10% heat-inactivated fetal bovine serum and 400 μg/ml G418 sulfate in an incubator at 37° C. with a humidified atmosphere of 10% CO2. […] For electrophysiological studies, cells were removed from the culture flask by brief trypsinization and replated at low density onto glass cover slips. Cells were typically used for electrophysiological experiments within 24 to 72 h after plating.
All recordings were made at room temperature (22-24° C.) using AXOPATCH 200B amplifiers and PCLAMP software (Axon Instruments, Burlingame, Calif.) or PatchXpress 7000 hardware and associated software (Axon Instruments, Burlingame, Calif.).
Current records were acquired at 20 to 50 KHz and filtered at 5 to 10 KHz.
HEK cells stably transfected with hSCN3A were viewed under Hoffman contrast optics and placed in front of an array of flow pipes emitting either control or compound-containing extracellular solutions. All compounds were dissolved in dimethyl sulfoxide to make 10 mM stock solutions, which were then diluted into extracellular solution to attain the final concentrations desired.
The voltage-dependence of inactivation was determined by applying a series of depolarizing prepulses (8 sec long in 10 mV increments) from a negative holding potential. The voltage was then immediately stepped to 0 mV to assess the magnitude of the sodium current. Currents elicited at 0 mV were plotted as a function of prepulse potential to allow estimation of the voltage midpoint of inactivation (V1/2). Cells were then voltage clamped at the empirically determined V1/2.
Compounds were tested for their ability to inhibit hSCN3A sodium channels by activating the channel with a 20 msec voltage step to 0 mV following an 8 second conditioning prepulse to the empirically determined V1/2 (Table B). Compound effect (% inhibition) was determined by difference in current amplitude before and after application of test compounds. […] Inhibition values <20% and >80% were excluded from the calculation.
In some cases electrophysiological assays were conducted with PatchXpress 7000 hardware and associated software (Molecular Devices Corp) (Table B). All assay buffers and solutions were identical to those used in conventional whole-cell voltage clamp experiments described above. hSCN3A cells were grown as above to 50%-80% confluency and harvested by trypsinization. Trypsinized cells were washed and resuspended in extracellular buffer at a concentration of 1×10^6 cells/ml. The onboard liquid handling facility of the PatchXpress was used for dispensing cells and application of test compounds. Determination of the voltage midpoint of inactivation was as described for conventional whole-cell recordings. Cells were then voltage-clamped to the empirically determined V1/2 and current was activated by a 20 msec voltage step to 0 mV.

T1 sequence (Q9NY46 whole entry): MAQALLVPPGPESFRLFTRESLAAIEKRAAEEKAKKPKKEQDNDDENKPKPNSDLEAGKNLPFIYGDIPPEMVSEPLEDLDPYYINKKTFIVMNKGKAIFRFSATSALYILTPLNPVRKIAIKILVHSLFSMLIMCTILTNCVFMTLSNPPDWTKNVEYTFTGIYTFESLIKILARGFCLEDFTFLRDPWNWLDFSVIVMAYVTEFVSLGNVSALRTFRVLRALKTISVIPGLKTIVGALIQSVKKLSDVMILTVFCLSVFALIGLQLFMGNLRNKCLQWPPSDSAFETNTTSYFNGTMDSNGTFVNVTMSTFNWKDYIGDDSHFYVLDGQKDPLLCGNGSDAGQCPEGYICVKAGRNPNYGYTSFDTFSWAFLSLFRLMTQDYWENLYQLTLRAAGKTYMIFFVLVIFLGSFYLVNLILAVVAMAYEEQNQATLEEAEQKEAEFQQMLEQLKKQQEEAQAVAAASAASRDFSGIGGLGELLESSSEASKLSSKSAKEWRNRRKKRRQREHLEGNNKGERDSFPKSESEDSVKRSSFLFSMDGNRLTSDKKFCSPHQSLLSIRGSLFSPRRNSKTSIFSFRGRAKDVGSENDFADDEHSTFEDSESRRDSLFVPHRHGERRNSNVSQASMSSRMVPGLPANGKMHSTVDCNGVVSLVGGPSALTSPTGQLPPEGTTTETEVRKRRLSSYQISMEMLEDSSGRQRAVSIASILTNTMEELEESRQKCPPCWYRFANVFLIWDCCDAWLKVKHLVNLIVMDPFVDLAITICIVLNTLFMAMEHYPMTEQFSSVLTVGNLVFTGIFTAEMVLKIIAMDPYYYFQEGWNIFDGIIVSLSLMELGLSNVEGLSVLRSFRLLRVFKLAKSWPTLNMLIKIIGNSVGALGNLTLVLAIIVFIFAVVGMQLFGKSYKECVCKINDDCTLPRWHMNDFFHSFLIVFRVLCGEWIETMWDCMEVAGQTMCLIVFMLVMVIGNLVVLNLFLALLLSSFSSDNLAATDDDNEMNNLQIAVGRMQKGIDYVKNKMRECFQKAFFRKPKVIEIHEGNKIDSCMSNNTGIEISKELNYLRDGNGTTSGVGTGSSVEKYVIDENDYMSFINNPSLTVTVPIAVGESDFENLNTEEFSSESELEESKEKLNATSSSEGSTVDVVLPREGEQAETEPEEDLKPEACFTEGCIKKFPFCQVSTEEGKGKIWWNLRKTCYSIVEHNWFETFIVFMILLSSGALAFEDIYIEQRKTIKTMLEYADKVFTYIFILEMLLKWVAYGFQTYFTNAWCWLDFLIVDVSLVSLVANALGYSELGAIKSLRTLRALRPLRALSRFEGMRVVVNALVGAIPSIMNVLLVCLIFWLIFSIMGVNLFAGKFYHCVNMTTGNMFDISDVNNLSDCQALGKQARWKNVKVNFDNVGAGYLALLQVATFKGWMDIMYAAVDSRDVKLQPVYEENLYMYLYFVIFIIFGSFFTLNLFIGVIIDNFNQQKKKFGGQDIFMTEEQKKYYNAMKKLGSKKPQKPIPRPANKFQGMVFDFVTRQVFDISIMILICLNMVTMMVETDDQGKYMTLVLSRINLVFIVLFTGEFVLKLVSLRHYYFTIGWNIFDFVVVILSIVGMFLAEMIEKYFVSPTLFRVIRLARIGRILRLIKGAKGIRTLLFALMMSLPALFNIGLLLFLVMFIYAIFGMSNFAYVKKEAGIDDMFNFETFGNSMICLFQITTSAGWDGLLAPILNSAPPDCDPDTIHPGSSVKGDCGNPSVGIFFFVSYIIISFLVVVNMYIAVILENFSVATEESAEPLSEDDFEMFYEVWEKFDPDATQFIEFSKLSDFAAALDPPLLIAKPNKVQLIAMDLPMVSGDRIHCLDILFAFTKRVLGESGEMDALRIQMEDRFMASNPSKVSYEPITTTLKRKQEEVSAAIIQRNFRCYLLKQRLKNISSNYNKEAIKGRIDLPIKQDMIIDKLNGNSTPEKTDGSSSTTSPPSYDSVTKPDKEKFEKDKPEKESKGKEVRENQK

| Molecule | IC50 |
| --- | --- |
| O=C(NCc1ccc(C(F)(F)F)cc1)c1ccc(S(=O)(=O)Nc2ccon2)cc1 [Example 7, 4-[(Isoxazol-3-ylamino)sulfonyl]-N-[4-(trifluoromethyl)benzyl]benzamide] | 5.87 µM |
| 4-[(1,3-Thiazol-2-ylamino)sulfonyl]-N-(4-isopropyloxybenzyl)benzamide [Example 69] | 0.77 µM |
| O=C(c1ccc(S(=O)(=O)Nc2nccs2)cc1)N1CCC(O)(c2ccc(Cl)cc2)CC1 [Example 236, 4-{[4-(4-Chlorophenyl)-4-hydroxypiperidin-1-yl]carbonyl}-N-1,3-thiazol-2-ylbenzenesulfonamide] | 3.11 µM |
| O=C(NCc1ccc(F)c(C(F)(F)F)c1)c1ccc(S(=O)(=O)Nc2nccs2)cc1F [Example 336, 2-Fluoro-N-[4-fluoro-3-(trifluoromethyl)benzyl]-4-[(1,3-thiazol-2-ylamino)sulfonyl] benzamide] | 0.24 µM |
| O=C(NCc1cccc(OC(F)(F)F)c1)c1ccc(S(=O)(=O)Nc2nccs2)cc1F [Example 335, 2-Fluoro-4-[(1,3-thiazol-2-ylamino)sulfonyl]-N-[3-(trifluoromethoxy)benzyl]benzamide] | 0.2 µM |
| O=C(NCc1ccc(C(F)(F)F)cc1)c1ccc(S(=O)(=O)Nc2nccs2)c(F)c1 [Example 303, 3-Fluoro-4-[(1,3-thiazol-2-ylamino)sulfonyl]-N-[4-(trifluoromethyl)benzyl]benzamide] | 0.14 µM |
| COc1ccc(CNC(=O)c2ccc(S(=O)(=O)Nc3nccs3)cc2)cc1C(F)(F)F [Example 412, N-[4-methoxy-3-(trifluoromethyl)benzyl]-4-[(1,3-thiazol-2-ylamino)sulfonyl] benzamide] | 0.27 µM |
| O=C(NCc1ccccc1-c1ccccc1)c1ccc(S(=O)(=O)Nc2nccs2)cc1 [Example 415, N-(biphenyl-2-ylmethyl)-4-[(1,3-thiazol-2-ylamino)sulfonyl] benzamide] | 0.38 µM |
| COc1ccc(NC(=O)c2ccc(S(=O)(=O)Nc3nccs3)cc2)cn1 [Example 177, N-(6-methoxypyridin-3-yl)-4-[(1,3-thiazol-2-ylamino)sulfonyl]benzamide] | 5.67 µM |
| O=C(NC1(Cc2ccc(Cl)cc2)CC1)c1ccc(S(=O)(=O)Nc2nccs2)cc1 [Example 134, N-[1-(4-chlorobenzyl)cyclopropyl]-4-[(1,3-thiazol-2-ylamino)sulfonyl]benzamide] | 2.28 µM |
| O=C(NCc1ccc(OC(F)(F)F)c(F)c1)c1ccc(S(=O)(=O)Nc2nccs2)cc1F [Example 328, 2-Fluoro-N-[3-fluoro-4-(trifluoromethoxy)benzyl]-4-[(1,3-thiazol-2-ylamino)sulfonyl] benzamide] | 0.12 µM |
| O=C(NCc1ccc(OC(F)(F)F)c(F)c1)c1ccc(S(=O)(=O)Nc2ncns2)cc1Cl [Example 376, 2-Chloro-N-[3-fluoro-4-(trifluoromethoxy)benzyl]-4-[(1,2,4-thiadiazol-5-ylamino)sulfonyl] benzamide] | 0.59 µM |
| O=C(NCc1ccc(F)c(C(F)(F)F)c1)c1ccc(S(=O)(=O)Nc2ncc(Cl)s2)c(Cl)c1 [Example 370, 3-Chloro-4-{[(5-chloro-1,3-thiazol-2-yl)amino]sulfonyl}-N-[4-fluoro-3-(trifluoromethyl)benzyl]benzamide] | 1.22 µM |
| O=C(Nc1nccc2ccccc12)c1ccc(S(=O)(=O)Nc2nccs2)cc1 [Example 117, N-isoquinolin-1-yl-4-[(1,3-thiazol-2-ylamino)sulfonyl]benzamide] | 12.7 µM |
| O=C(NCc1ccc(F)c(OC(F)(F)F)c1)c1ccc(S(=O)(=O)Nc2ncc(Cl)s2)c(Cl)c1 [Example 367, 3-Chloro-4-{[(5-chloro-1,3-thiazol-2-yl)amino]sulfonyl}-N-[4-fluoro-3-(trifluoromethoxy)benzyl]benzamide] | 1.51 µM |
| O=C(NCCc1cccc(F)c1)c1ccc(S(=O)(=O)Nc2nccs2)cc1 [Example 75, N-[2-(3-fluorophenyl)ethyl]-4-[(1,3-thiazol-2-ylamino)sulfonyl]benzamide] | > 0.3 µM |

| Molecule | IC50 |
| --- | --- |
| O=C(NCc1cccc(C(F)(F)F)c1F)c1ccc(S(=O)(=O)Nc2nccs2)cc1 [Example 392, N-[2-fluoro-3-(trifluoromethyl)benzyl]-4-[(1,3-thiazol-2-ylamino)sulfonyl]benzamide] | 0.23 µM |
| O=C(NCc1ccc(F)c(F)c1)c1ccc(S(=O)(=O)Nc2ncc(Cl)s2)c(F)c1 [Example 312, 4-{[(5-Chloro-1,3-thiazol-2-yl)amino]sulfonyl}-N-(3,4-difluorobenzyl)-3-fluorobenzamide] | 0.14 µM |
| O=C(NCc1cc(F)cc(F)c1F)c1ccc(S(=O)(=O)Nc2nccs2)cc1 [Example 65, 4-[(1,3-Thiazol-2-ylamino)sulfonyl]-N-(2,3,5-trifluorobenzyl)benzamide] | 3.84 µM |
| O=C(NCc1ccc(C(F)(F)F)cc1)c1cccc(S(=O)(=O)Nc2nccs2)c1 [Example 349, 3-[(1,3-Thiazol-2-ylamino)sulfonyl]-N-[4-(trifluoromethyl)benzyl]benzamide] | 9.87 µM |
| O=C(NCc1ccc(C(F)(F)F)cc1)c1ccc(S(=O)(=O)Nc2ncc(Cl)s2)c(Cl)c1 [Example 373, 3-Chloro-4-{[(5-chloro-1,3-thiazol-2-yl)amino]sulfonyl}-N-[4-(trifluoromethyl)benzyl] benzamide] | 0.49 µM |
| Cc1ccc(CNC(=O)c2ccc(S(=O)(=O)Nc3nccs3)cc2)cc1F [Example 62, N-(3-fluoro-4-methylbenzyl)-4-[(1,3-thiazol-2-ylamino)sulfonyl]benzamide] | 1.02 µM |
| Cc1cc(NS(=O)(=O)c2ccc(C(=O)NCc3ccc(C(F)(F)F)cc3)cc2)no1 [Example 18, 4-{[(5-Methylisoxazol-3-yl)amino]sulofnyl}-N-[4-(trifluoromethyl)benzyl]benzamide] | 2.26 µM |
| Cc1nsc(NS(=O)(=O)c2ccc(C(=O)NCc3ccc(C(F)(F)F)cc3)cc2)n1 [Example 6, 4-{[(3-Methyl-1,2,4-thiadiazol-5-yl)amino]sulfonyl}-N-[4-(trifluoromethyl)benzyl]benzamide] | 1.11 µM |
| O=C(NCc1ccc(C(F)(F)F)cc1)c1ccc(S(=O)(=O)Nc2nc(C(F)(F)F)cs2)cc1 [Example 4, N-[4-(Trifluoromethyl)benzyl]-4-({[4-(trifluoromethyl)-1,3-thiazol-2-yl]amino}sulfonyl)benzamide] | 2.53 µM |
| COc1cc(OC(F)(F)F)ccc1CNC(=O)c1ccc(S(=O)(=O)Nc2nccs2)cc1 [Example 404, N-[2-methoxy-4-(trifluoromethoxy)benzyl]-4-[(1,3-thiazol-2-ylamino)sulfonyl] benzamide] | 0.14 µM |
| N#Cc1cc(S(=O)(=O)Nc2ncc(Cl)s2)ccc1C(=O)NCc1ccc(C(F)(F)F)c(F)c1 [Example 348, 4-{[(5-Chloro-1,3-thiazol-2-yl)amino]sulfonyl}-2-cyano-N-[3-fluoro-4-(trifluoromethyl)benzyl]benzamide] | 1.58 µM |
| O=C(NCc1ccc(C(F)(F)F)cc1F)c1ccc(S(=O)(=O)Nc2ncc(Cl)s2)cc1 [Example 39, 4-{[(5-Chloro-1,3-thiazol-2-yl)amino]sulfonyl}-N-[2-fluoro-4-(trifluoromethyl)benzyl]benzamide] | 0.12 µM |
| O=C(NCc1ccc(C(F)(F)F)cc1)c1ccc(S(=O)(=O)Nc2ncc(Cl)s2)cc1F [Example 352, 4-{[(5-Chloro-1,3-thiazol-2-yl)amino]sulfonyl}-2-fluoro-N-[4-(trifluoromethyl)benzyl]benzamide] | 0.2 µM |
| O=C(NCc1ccc(OC(F)(F)F)cc1)c1ccc(S(=O)(=O)Nc2nccs2)cc1 [Example 402, 4-[(1,3-Thiazol-2-ylamino)sulfonyl]-N-[4-(trifluoromethoxy)benzyl]benzamide] | 0.19 µM |
| O=C(NCc1ccc(F)c(Cl)c1)c1ccc(S(=O)(=O)Nc2nccs2)c(Cl)c1 [Example 294, 3-Chloro-N-(3-chloro-4-fluorobenzyl)-4-[(1,3-thiazol-2-yl-amino)sulfonyl]benzamide] | 1.84 µM |
| Cc1ncc(NS(=O)(=O)c2ccc(C(=O)NCc3ccc(C(F)(F)F)cc3)cc2)s1 [Example 16, 4-{[(2-Methyl-1,3-thiazol-5-yl)amino]sulfonyl}-N-[4-(trifluoromethyl)benzyl]benzamide] | > 10 µM |

Source: patent US8741934B2, “Inhibitors of ion channels” (Pfizer Limited, priority 2007, dated 2014)
